Assay results reported in patent US20200268720A1, “METHODS OF USE OF A CLASS IIA HDAC INHIBITOR” (GlaxoSmithKline LLC, priority 2016, published 2020).
“Also recorded” adds a separate entry of the source.

Columns and labels:
[1] = test system: MMTV-PyMT tumor transplants; assay: Orthotopic transplant of MMTV-PyMT tumor pieces into wild-type FVBN or athymic nude Foxn1nu mice; type: in vivo, mouse
Description: Two transplant experiments were performed where tumors were extracted from MMTV-PyMT mice and 50-100 mm^3 pieces were inserted into the 4th mammary fat pad of either wild-type FVBN mice or athymic nude Foxn1nu mice. Five days after implant mice were randomly placed into treatment groups and treated as indicated.

[2] = test system: metastatic lesions in the lung; assay: Pulmonary metastasis analysis; type: in vivo, mouse
Description: Lungs were removed from animals as described above. […] The number of metastatic foci are determined on sections taken every […] throughout the whole lung^3,33 and quantitation was performed blinded by an animal pathologist.

tumor macrophages [3] = assay: Macrophage phagocytosis and activation in tumors (IHC, immunocytochemistry, flow cytometry); type: in vivo, mouse
Description: Tumor cells were acquired from three DMSO and three TMP195 5-day treated autochthonous MMTV-PyMT mice. CD11b^+ cells were purified using the automacs (Miltenyi) automated machine according to manufacturer's protocol. CD11b cells were labeled with a CD11b-biotin antibody (101204, BioLegend) and retrieved with ultrapure biotin beads (Miltenyi 130-105-637). Following purification, CD11b^+ cells were cytospun at 300 rpm for 5 minutes onto slides. Cells were fixed in 4% PFA/Sucrose solution for 5 minutes at RT and stored in 4° C. until ready for use. Upon experimentation, slides were permeablized with 0.03% Triton-X for 10 minutes, followed by three 5 minute rinses with 1× PBS. Samples were blocked with 10% Normal Goat Serum (NGS) in 1×PBS for 1 hour at RT. Next cells were stained for the following antibodies anti-mouse/human CD11b (101201, BioLegend), anti-mouse F4/80 (Bio-Rad, MCA497R), and Alexa Fluor 594 anti-mouse CD326 (Ep-CAM) (118222, BioLegend) at 1:100, 1:50 and 1:25 dilution in 1% NGS/1×PBS respectively overnight at 4° C. The following morning, samples were rinsed three times with 1×PBS for five minutes each, replaced with Alexa Fluor 488 goat anti-rat IgG (405418, BioLegend) at 1:200 dilution in 1% NGS, and incubated for one hour at RT. All samples were counterstained with Dapi (P36930, Life Technologies) at 1:1000 dilution in 1% NGS. Next, the samples were rinsed three times for 5 minutes each with 1×PBS. Slides were dehydrated 2× with 95% ethanol and 1× with 100% ethanol. Coverslips were mounted using Prolong Gold antifade reagent (936930, Life Technologies) and imaged with Leica SP5X: Laser Scanning Confocal microscope at 40× magnification. For analysis immunocytochemistry images were assessed by using a co-localization pipeline. In general, the pipeline identified a primary image (nucleus) and a secondary image (CD11b^+). The overlapped images were identified as a “cell”. To avoid background signal, a minimum threshold was applied for the protein of interest (CD11b, F480 and EPCAM) and only the masked objects that had fell within the given dynamic range were considered CD11b or F480 positive. Finally the overlapped image identified as “cell” was masked with the threshold image of the EPCAM. Objects identified as positive for CD11b and EPCAM or F480 and EPCAM were normalized to the number of CD11b or F480 positive cells per image, and portrayed as an average percentage. A total of 60 individual CD11b+ cells and a total of 100 individual F480^+ cells were analyzed from each treatment group.

whole MMTV-PyMT tumors = assay: Gene expression in RNA isolated from whole tumors after two weeks of treatment; type: in vivo, mouse; settings: two weeks TMP195 vs vehicle, n=3 mice per group
Description: All procedures were performed at Boston University Microarray Resource Facility as described in the […] ® Whole Transcript (WT) Plus Reagent Kit Manual (Affymetrix, Santa Clara, Calif.). Briefly, the total RNA was isolated using an RNEASY® kit (Qiagen), and the sample integrity was verified using RNA 6000 Pico Assay RNA chips run in Agilent 2100 Bioanalyzer (Agilent Technologies). […] The obtained cDNA was used as a template for in vitro transcription using GeneChip® WT Expression Kit (Life Technologies). […] During this step, dUTP was incorporated. […] IVT and cDNA fragmentation quality controls were carried out by running an mRNA Pico assay in the Agilent 2100 Bioanalyzer. The labeled fragmented DNA was hybridized to the Gene Arrays 1.0ST for 16-18 h in […] ® Hybridization oven 640 at 45° C. with rotation (60 r.p.m.). The hybridized samples were washed and stained using Affymetrix fluidics station 450 as per manufacturer's instruction (Hybridization, Washing and Staining kit, Affymetrix). Microarrays were immediately scanned using Affymetrix GeneArray Scanner 3000 7G Plus (Affymetrix).

tumor macrophages [4] = assay: New vs. pre-existing macrophage dextran experiment; type: in vivo, mouse; settings: 5 days of TMP195 vs vehicle
Description: MMTV-PyMT tumor-bearing mice were injected with 0.25 mg/mouse (10 mpk) low molecular weight (10,000 MW) Alexa555-labelled dextran (Life Technologies D34679) which is readily taken up by phagocytic cells. Mice were then treated for 5 consecutive days with DMSO or TMP195. Two hours before the mice were sacrificed they were injected with 0.25 mg/mouse of another low molecular weight (10,000 MW) dextran, this time labeled with Alexa594 (Life Technologies D22913)14. Tumors were collected as described above and flow cytometry was performed. […] Mice that received only one of the dextran conjugates were used as controls for flow cytometry.

[5] = 50 mg/kg TMP195 IP daily, 5 days vs DMSO

## CC(C)(CNC(=O)c1cccc(-c2noc(C(F)(F)F)n2)c1)c1coc(-c2ccccc2)n1 [TMP195, N-(2-methyl-2-(2-phenyloxazol-4-yl)propyl)-3-(5-(trifluoromethyl)-1,2,4-oxadiazol-3-yl)benzamide]
[1]; treated daily for 16 days, 50 mg/kg TMP195 vs DMSO
  tumor burden in wild-type FVBN recipients: tumor burden was reduced
[1]; treated for 20 days
  transplant growth in T cell deficient athymic nude (Foxn1nu) recipient mice: failed to inhibit transplant growth
[2]; initial tumor burden <400 mm^3, 24 days of treatment
  metastatic lesions in the lung: significant decrease
[2]; tumor burden 200-600 mm^3 at start, 14 days of treatment
  metastatic pulmonary lesions: decrease
Tumor macrophages [3]; 5 days of TMP195
  apoptotic bodies within tumor macrophages (cleaved caspase 3 IHC): appearance of apoptotic bodies
  intracellular EPCAM in F480+ and CD11b+ cells (phagocytosed breast tumor cells): co-stain as EPCAM^+
Tumor macrophages [3]; 5 days of TMP195 vs vehicle
  cells resembling tingible body macrophages (F480 IHC): marked appearance
  proportion of F480+ and CD11b+ cells that express CD40: higher proportion
Whole MMTV-PyMT tumors
  differential gene expression in whole tumor RNA: overall lack of differential gene expression
Tumor macrophages [4]
  number of new macrophages in the tumor: increases
  number of pre-existing macrophages in the tumor: not and without affecting
MMTV-PyMT tumors; [5]
  proportion of myeloid (CD11b+) and mature macrophages (Mac-2+, CD115+, F480+) in tumors: increased proportion
  proportion of other tumor infiltrating immune cells examined: without affecting
MMTV-PyMT tumors; 5 days of TMP195 treatment
  MHCII+CD11bhi (MTM) cell population in tumors: increase
  proportion of pro-tumor TAMs (MHCII+CD11blo): decrease; also recorded: significant reduction
MMTV-PyMT tumors; 5 days of TMP195 vs vehicle
  cytotoxic T lymphocytes in tumors (Granzyme B+ of CD45+CD3+CD8+ cells): significantly increases; also recorded: increase
MMTV-PyMT tumors; TMP195 treatment
  proportion of CD8+ T cells in the tumor: does not change
